Reference: US20230416227A1, “PLASMA KALLIKREIN INHIBITORS” (Merck Sharp & Dohme LLC, priority 2020, published 2023)

Tests used:
human factor XIa = human factor XIa (Homo sapiens, UniProt P03951); assay: Factor XIa Assay; format: biochemical; details: human factor XIa 0.04 nM, substrate GPR-AFC, 30 min pre-incubation at 25° C., pH 7.4; read-out: FXIa IC50
Human plasma kallikrein = biological target: T1, Human plasma kallikrein (Homo sapiens, UniProt P03952); assay: Plasma Kallikrein Assay; format: biochemical; details: purified Human plasma kallikrein 0.5 nM, substrate Acetyl-K-P-R-AFC, pH 7.4
T1 construct: yields a heavy chain (371 amino acids) and a light chain (248 amino acids); purchased Enzyme Research Laboratories
T1 sequence (P03952 391-638 limits assumed): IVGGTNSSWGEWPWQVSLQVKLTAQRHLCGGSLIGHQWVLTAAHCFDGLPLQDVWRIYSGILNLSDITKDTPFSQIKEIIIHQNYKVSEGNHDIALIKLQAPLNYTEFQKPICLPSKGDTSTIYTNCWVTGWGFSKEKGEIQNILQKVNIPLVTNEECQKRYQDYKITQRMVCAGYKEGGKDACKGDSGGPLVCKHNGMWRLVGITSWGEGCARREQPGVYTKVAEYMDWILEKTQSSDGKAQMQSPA
T1 sequence (P03952 20-390 partner limits assumed): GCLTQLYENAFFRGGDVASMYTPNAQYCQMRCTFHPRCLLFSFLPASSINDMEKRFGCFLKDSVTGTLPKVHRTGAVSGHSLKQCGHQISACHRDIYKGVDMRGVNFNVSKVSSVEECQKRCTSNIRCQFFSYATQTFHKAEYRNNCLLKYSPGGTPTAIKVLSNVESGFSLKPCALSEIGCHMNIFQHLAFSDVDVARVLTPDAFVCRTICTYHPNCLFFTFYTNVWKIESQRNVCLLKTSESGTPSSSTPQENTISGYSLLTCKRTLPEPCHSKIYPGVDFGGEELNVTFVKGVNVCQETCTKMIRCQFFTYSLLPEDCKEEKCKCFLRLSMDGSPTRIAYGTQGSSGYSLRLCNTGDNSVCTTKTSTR

Chain of human factor XIa (P03951 388-625 limits assumed): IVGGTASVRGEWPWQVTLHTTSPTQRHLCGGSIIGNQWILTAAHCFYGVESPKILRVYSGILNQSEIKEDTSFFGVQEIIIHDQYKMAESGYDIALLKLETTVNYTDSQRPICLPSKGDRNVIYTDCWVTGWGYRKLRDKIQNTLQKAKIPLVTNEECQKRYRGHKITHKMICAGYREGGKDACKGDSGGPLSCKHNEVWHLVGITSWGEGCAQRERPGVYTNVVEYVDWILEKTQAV
Chain of human factor XIa (P03951 19-387 partner limits assumed): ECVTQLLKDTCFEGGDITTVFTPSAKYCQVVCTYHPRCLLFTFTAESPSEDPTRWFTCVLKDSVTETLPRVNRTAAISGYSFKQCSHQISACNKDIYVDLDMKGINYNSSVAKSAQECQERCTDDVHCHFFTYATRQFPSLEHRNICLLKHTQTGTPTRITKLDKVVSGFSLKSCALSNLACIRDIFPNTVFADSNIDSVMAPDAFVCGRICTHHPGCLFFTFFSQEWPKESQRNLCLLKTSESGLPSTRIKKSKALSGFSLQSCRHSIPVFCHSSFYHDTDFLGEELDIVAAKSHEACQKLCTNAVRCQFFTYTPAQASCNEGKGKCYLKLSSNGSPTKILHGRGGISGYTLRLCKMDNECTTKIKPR

| SMILES | IC50 (human factor XIa) | IC50 (Human plasma kallikrein) |
| --- | --- | --- |
| CN(CC1CCCN1c1ncc(Cn2cc(NC(=O)c3cncc(-c4c(C(F)F)ccc(Cl)c4F)n3)cn2)cn1)CC1(O)CC1 (single isomer, unassigned) [Example 141, (R or S)-6-(3-Chloro-6-(difluoromethyl)-2-fluorophenyl)-N-(1-((2-(2-((((1-hydroxycyclopropyl)methyl)(methyl)amino)methyl)pyrrolidin-1-yl)pyrimidin-5-yl)methyl)-1H-pyrazol-4-yl)pyrazine-2-carboxamide] | 4730 nM | 0.3 nM |
| CC(c1cnc(N2C[C@H]3C[C@H]3C2C(=O)N(C)C)nc1)n1cc(NC(=O)c2cncc(-c3c(C(F)F)ccc(Cl)c3F)n2)cn1 (single isomer, unassigned) [Example 200, (1R,2S,5S or 1S,2R,5R)-3-(5-((R or S)-1-(4-(6-(3-Chloro-6-(difluoromethyl)-2-fluorophenyl)pyrazine-2-carboxamido)-1H-pyrazol-1-yl)ethyl)pyrimidin-2-yl)-N,N-dimethyl-3-azabicyclo[3.1.0]hexane-2-carboxamide] | 1120 nM | 2.4 nM |
| CC(c1cnc(N2C[C@H]3C[C@H]3C2C(=O)N(C)C)nc1)n1cc(NC(=O)c2cncc(-c3c(C(F)F)ccc(Cl)c3F)n2)cn1 (single isomer, unassigned) [Example 202, (1R,2S,5S or 1S,2R,5R)-3-(5-((R or S)-1-(4-(6-(3-Chloro-6-(difluoromethyl)-2-fluorophenyl)pyrazine-2-carboxamido)-1H-pyrazol-1-yl)ethyl)pyrimidin-2-yl)-N,N-dimethyl-3-azabicyclo[3.1.0]hexane-2-carboxamide] | 2260 nM | 1 nM |
| C[C@@H](c1cnc(N2CCC2)nc1)n1cc(NC(=O)c2cncc(-c3c(C(F)F)ccc(Cl)c3F)n2)cn1 [Example 5, (S)-N-(1-(1-(2-(Azetidin-1-yl)pyrimidin-5-yl)ethyl)-1H-pyrazol-4-yl)-6-(3-chloro-6-(difluoromethyl)-2-fluorophenvl)pyrazine-2-carboxamide] | 1350 nM | 6.6 nM |
| Cc1nc(N2CCC2)ccc1Cn1cc(NC(=O)c2cncc(-c3c(C(F)F)ccc(Cl)c3F)n2)cn1 [Example 9, N-(1-((6-(Azetidin-1-yl)-2-methylpyridin-3-yl)methyl)-1H-pyrazol-4-yl)-6-(3-chloro-6-(difluoromethyl)-2-fluorophenyl)pyrazine-2-carboxamide] | 5100 nM | 5.2 nM |
| Cc1ncc(-c2c(C(F)F)ccc(Cl)c2F)nc1C(=O)Nc1cnn(Cc2cnc(N3CC(F)(F)C3)c(C)n2)c1 [Example 11, 6-(3-Chloro-6-(difluoromethyl)-2-fluorophenyl)-N-(1-((5-(3,3-difluoroazetidin-1-yl)-6-methylpyrazin-2-yl)methyl)-1H-pyrazol-4-yl)-3-methylpyrazine-2-carboxamide] | 1710 nM | 6.2 nM |
| Cc1nc(Cn2cc(NC(=O)c3cncc(-c4c(C(F)F)ccc(Cl)c4F)n3)cn2)cnc1N1CC(F)(F)C1 [Example 15, 6-(3-Chloro-6-(difluoromethyl)-2-fluorophenyl)-N-(1-((5-(3,3-difluoroazetidin-1-yl)-6-methylpyrazin-2-yl)methyl)-1H-pyrazol-4-yl)pyrazine-2-carboxamide] | 3690 nM | 8.1 nM |
| N#Cc1cc(N2CCC2)ncc1Cn1cc(NC(=O)c2cncc(-c3c(C(F)F)ccc(Cl)c3F)n2)cn1 [Example 16, N-(1-((6-(Azetidin-1-yl)-4-cyanopyridin-3-yl)methyl)-1H-pyrazol-4-yl)-6-(3-chloro-6-(difluoromethyl)-2-fluorophenyl)pyrazine-2-carboxamide] | 1050 nM | 8.4 nM |
| Cc1cc(N2CCC2)ncc1Cn1cc(NC(=O)c2cncc(-c3c(C(F)F)ccc(Cl)c3F)n2)cn1 [Example 17, N-(1-((6-(Azetidin-1-yl)-4-methylpyridin-3-yl)methyl)-1H-pyrazol-4-yl)-6-(3-chloro-6-(difluoromethyl)-2-fluorophenyl)pyrazine-2-carboxamide] | 1370 nM | 10.2 nM |
| O=C(Nc1cnn(C2(c3cnc(N4CCC4)nc3)CC2)c1)c1cncc(-c2c(C(F)F)ccc(Cl)c2F)n1 [Example 21, N-(1-(1-(2-(Azetidin-1-yl)pyrimidin-5-yl)cyclopropyl)-1H-pyrazol-4-yl)-6-(3-chloro-6-(difluoromethyl)-2-fluorophenyl)pyrazine-2-carboxamide] | 973 nM | 17 nM |
| O=C(Nc1cnn(Cc2cnc(N3CCC3)nc2C2CC2)c1)c1cncc(-c2c(C(F)F)ccc(Cl)c2F)n1 [Example 22, N-(1-((2-(Azetidin-1-yl)-4-cyclopropylpyrimidin-5-yl)methyl)-1H-pyrazol-4-yl)-6-(3-chloro-6-(difluoromethyl)-2-fluorophenyl)pyrazine-2-carboxamide] | 4370 nM | 22.3 nM |
| O=C(Nc1cnn(S(=O)(=O)c2ccc(N3CCC3)nc2)c1)c1cncc(-c2c(C(F)F)ccc(Cl)c2F)n1 [Example 26, N-(1-((6-(Azetidin-1-yl)pyridin-3-yl)sulfonyl)-1H-pyrazol-4-yl)-6-(3-chloro-6-(difluoromethyl)-2-fluorophenyl)pyrazine-2-carboxamide] | 5350 nM | 45.9 nM |
| CC(c1cnc(N2CCC2)nc1)n1cc(NC(=O)c2cncc(-c3c(Br)ccc(Cl)c3F)n2)cn1 (stereo not drawn) [Example 62, N-(1-(1-(2-(Azetidin-1-yl)pyrimidin-5-yl)ethyl)-1H-pyrazol-4-yl)-6-(6-bromo-3-chloro-2-fluorophenyl)pyrazine-2-carboxamide] | 2150 nM | 17.8 nM |

More lines, now with the values ahead:

| IC50 (human factor XIa) | IC50 (Human plasma kallikrein) | SMILES |
| --- | --- | --- |
| 921 nM | 10.2 nM | COc1ncc(-c2c(C(F)F)ccc(Cl)c2F)nc1C(=O)Nc1cnn(Cc2cnc(N3CCC3)nc2)c1 [Example 1, N-(1-((2-(Azetidin-1-yl)pyrimidin-5-yl)methyl)-1H-pyrazol-4-yl)-6-(3-chloro-6-(difluoromethyl)-2-fluorophenyl)-3-methoxypyrazine-2-carboxamide] |
| 1110 nM | 15.8 nM | O=C(Nc1cnn(Cc2cnc(N3CCC3)nc2CO)c1)c1cncc(-c2c(C(F)F)ccc(Cl)c2F)n1 [Example 2, N-(1-((2-(Azetidin-1-yl)-4-(hydroxymethyl)pyrimidin-5-yl)methyl)-1H-pyrazol-4-yl)-6-(3-chloro-6-(difluoromethyl)-2-fluorophenyl)pyrazine-2-carboxamide] |
| 458 nM | 4.2 nM | Cc1nc(N2CCC2)ncc1Cn1cc(NC(=O)c2cncc(-c3c(C(F)F)ccc(Cl)c3F)n2)cn1 [Example 8, N-(1-((2-(Azetidin-1-yl)-4-methylpyrimidin-5-yl)methyl)-1H-pyrazol-4-yl)-6-(3-chloro-6-(difluoromethyl)-2-fluorophenyl)pyrazine-2-carboxamide] |
| 647 nM | 5.2 nM | Cc1nc(Cn2cc(NC(=O)c3cncc(-c4c(C(F)F)ccc(Cl)c4F)n3)cn2)cnc1N1CCC1 [Example 10, N-(1-((5-(Azetidin-1-yl)-6-methylpyrazin-2-yl)methyl)-1H-pyrazol-4-yl)-6-(3-chloro-6-(difluoromethyl)-2-fluorophenyl)pyrazine-2-carboxamide] |
| 3510 nM | 6.2 nM | O=C(Nc1cnn(Cc2cnc(N3CCC3)c(F)c2)c1)c1cncc(-c2c(C(F)F)ccc(Cl)c2F)n1 [Example 12, N-(1-((6-(Azetidin-1-yl)-5-fluoropyridin-3-yl)methyl)-1H-pyrazol-4-yl)-6-(3-chloro-6-(difluoromethyl)-2-fluorophenyl)pyrazine-2-carboxamide] |
| 1840 nM | 7.2 nM | O=C(Nc1cnn(Cc2cnc(N3CCC3)cn2)c1)c1cncc(-c2c(C(F)F)ccc(Cl)c2F)n1 [Example 13, N-(1-((5-(Azetidin-1-yl)pyrazin-2-yl)methyl)-1H-pyrazol-4-yl)-6-(3-chloro-6-(difluoromethyl)-2-fluorophenyl)pyrazine-2-carboxamide] |
| 312 nM | 8 nM | CCc1ncc(-c2c(C(F)F)ccc(Cl)c2F)nc1C(=O)Nc1cnn(Cc2cnc(N3CCC3)nc2)c1 [Example 14, N-(1-((2-(Azetidin-1-yl)pyrimidin-5-yl)methyl)-1H-pyrazol-4-yl)-6-(3-chloro-6-(difluoromethyl)-2-fluorophenyl)-3-ethylpyrazine-2-carboxamide] |
| 2000 nM | 13.1 nM | O=C(Nc1cnn(Cc2ccc(N3CCC3)nc2)c1)c1cncc(-c2c(C(F)F)ccc(Cl)c2F)n1 [Example 18, N-(1-((6-(Azetidin-1-yl)pyridin-3-yl)methyl)-1H-pyrazol-4-yl)-6-(3-chloro-6-(difluoromethyl)-2-fluorophenyl)pyrazine-2-carboxamide] |
| 4630 nM | 14.6 nM | O=C(Nc1cnn(Cc2cnc(N3CCC3)nc2C(F)F)c1)c1cncc(-c2c(C(F)F)ccc(Cl)c2F)n1 [Example 19, N-(1-((2-(Azetidin-1-yl)-4-(difluoromethyl)pyrimidin-5-yl)methyl)-1H-pyrazol-4-yl)-6-(3-chloro-6-(difluoromethyl)-2-fluorophenyl)pyrazine-2-carboxamide] |
| 1760 nM | 26 nM | COc1nc(N2CCC2)ncc1Cn1cc(NC(=O)c2cncc(-c3c(C(F)F)ccc(Cl)c3F)n2)cn1 [Example 23, N-(1-((2-(Azetidin-1-yl)-4-methoxypyrimidin-5-yl)methyl)-1H-pyrazol-4-yl)-6-(3-chloro-6-(difluoromethyl)-2-fluorophenyl)pyrazine-2-carboxamide] |
| 6090 nM | 41.3 nM | O=C(Nc1cnn(Cc2cnc(N3CCC3)nc2)n1)c1cncc(-c2c(C(F)F)ccc(Cl)c2F)n1 [Example 25, N-(2-((2-(Azetidin-1-yl)pyrimidin-5-yl)methyl)-2H-1,2,3-triazol-4-yl)-6-(3-chloro-6-(difluoromethyl)-2-fluorophenyl)pyrazine-2-carboxamide] |
